Values quoted from earlier work as cited in patent publication US20130296430A1, “COMPOSITIONS AND METHODS FOR TREATING AUTISM AND AUTISM SPECTRUM DISORDER” (priority 2012, published 2013).

Settings: doses less than NAC; effects counter to those reported for NAC; Samstrand et al 1999; cited from earlier work

## CC(=O)N[C@@H](CSSC[C@H](NC(C)=O)C(=O)O)C(=O)O [oxidized form of NAC]
  bioactive dose relative to NAC: 10-100 fold
